# Literature values as cited in EP2662403B1, “Stabilizing resin formulation of halogen-containing polymers” (Reagens S.p.A., priority 2012, dated 2013).
# Where two headings read alike, the source gives them in different places.
# Settings: indication of the basicity of the polyalkylpiperidine in the formulation, no method or source given
pKb (Table 9),pKb (Table 10),pKb (Table 11),pKb (Table 12),SMILES
4.3-7.4,4.3-7.4,4.3-7.4,4.3-7.4,"CC1(C)CC(OC(=O)CCCCCCCCC(=O)OC2CC(C)(C)NC(C)(C)C2)CC(C)(C)N1 [Tinuvin 770, bis(2,2,6,6,-tetramethyl-4-piperidyl)sebacate]"
,,5.5-8.5,,"CN1C(C)(C)CC(OC(=O)CCCCCCCCC(=O)OC2CC(C)(C)N(C)C(C)(C)C2)CC1(C)C [Tinuvin 765, bis(1,2,2,6,6-pentamethyl-4-piperidyl)sebacate]"
,,5.5-8.5,,CCCCN(c1nc(NCCCN(CCN(CCCNc2nc(N(CCCC)C3CC(C)(C)N(C)C(C)(C)C3)nc(N(CCCC)C3CC(C)(C)N(C)C(C)(C)C3)n2)c2nc(N(CCCC)C3CC(C)(C)N(C)C(C)(C)C3)nc(N(CCCC)C3CC(C)(C)N(C)C(C)(C)C3)n2)c2nc(N(CCCC)C3CC(C)(C)N(C)C(C)(C)C3)nc(N(CCCC)C3CC(C)(C)N(C)C(C)(C)C3)n2)nc(N(CCCC)C2CC(C)(C)N(C)C(C)(C)C2)n1)C1CC(C)(C)N(C)C(C)(C)C1 [Chimassorb 119]
